Values joined by “and” are separate entries in the source; they are usually repeats but may differ in a detail not shown here. Equal entries are not always repeated.
Key:
[1] = tested on: M. xanthus pilin (PilA) production; test: Pilin production, dot blot of whole cells with anti-PilA antibodies; assay type: cell-based, Myxococcus xanthus; details: strain YZ603, whole cell dot blot
Protocol: Fig. 6A and B show a representative of the data from three biological experiments, each conducted with 4 technical replicates (R1 to R4).
Piliation levels of the M. xanthus strain YZ603 (ΔdifE) ([52]) were analyzed by dot-blotting with anti-PilA antibodies as previously described ([28]). This study included a fraction representing the “Basal” T4P levels for a given treatment. […] These fractions were used as controls and subtracted as the baseline in data analysis.

CtPilB [2] = target: T1, CtPilB (Chloracidobacterium thermophilum, UniProt G2LDI3); test: MANT-ATP binding to CtPilB (fluorescence); details: for Ki: estimated by Cheng-Prusoff equation from MANT-ATP IC50, assuming competitive inhibition, read-out: Ki (inhibition constant); for IC50: fraction of MANT-ATP bound, fluorescence
Protocol: To probe the mechanisms of inhibition, we examined benserazide and levodopa for their effects on the binding of PilB to the fluorescent ATP analog MANT-ATP ([28]).
FIG 3 Benserazide and levodopa reduce MANT-ATP binding to CtPilB. Fluorescence was used to calculate the fraction of MANT-ATP bound to CtPilB. Experiments were performed in triplicates with samples containing constant concentrations of CtPilB and MANT-ATP with varying concentrations of (A) benserazide or (B) levodopa. The three different sets of colored dots represent averages from three independent experiments with error bars omitted for clarity. Best fits to isotherms with indicated IC50s are shown.
(§1) The effects of inhibitors on the ATPase activity of CtPilB and CtPilBΔN and the binding of MANT-ATP were determined as described previously ([28], [29]). Stock solutions were prepared by dissolving benserazide hydrochloride (Alfa Aesar) or levodopa (Spectrum Chemical Mfg. Corp.) in dimethyl sulfoxide (DMSO; Fisher Biotech). Next, 10× working stocks for given concentrations of an inhibitor were freshly prepared before their use in an experiment. GraphPad Prism v7.04 was used for curve fitting and Student’s t test was used for statistical analysis.

CtPilB [3] = target: T1, CtPilB; test: Malachite green ATPase assay, dose response (benchtop); assay type: biochemical; details: IC50, CtPilB ATPase activity, full-length CtPilB, curve fitting, three independent experiments
Protocol: (§2) The full-length CtPilB and the CtPilBΔN variant (with the first 139 residues at the N terminus truncated) were purified as preciously described ([29]). The HTS was conducted using 384-well microplates (Greiner, cat no. 781101). Each microwell for the screen contained a 15-μL reaction mixture consisting of 75 nM CtPilB, 0.5 mM ATP, 20 μM of a library compound, and 2% DMSO in activity buffer (50 mM N-tris(hydroxymethyl)methyl-3-aminopropanesulfonic acid [TAPS], 50 mM Tris, 75 mM KCl, 50 mM sodium acetate, 5 mM MgCl2, 50 mM ZnCl2 [pH 8.7]) ([29]). Reaction mixtures were incubated at 55°C for 10 min and transferred to ice for 5 min to stop the enzymatic reaction. MG reagent (50 μL) was added to each well for color development. After a 15-minute incubation, 5 μL of 34% (wt/vol) sodium-citrate (MP Chemicals) was added and the plate was mixed by shaking ([28], [29]). Absorbance at 620 nm (A620) was measured using a SpectraMax M5 microplate reader at room temperature. The HTS was performed at the Virginia Tech Center for Drug Discovery (VTCDD) Screening Laboratory.
as §1

CtPilBΔN = target: T2, CtPilBΔN (Chloracidobacterium thermophilum, UniProt G2LDI3); test: ATPase assay of truncated CtPilB variant without N-terminal MshEN domain; assay type: biochemical; details: read-out: IC50, ATPase activity of PilBΔN
T2 sequence (G2LDI3 140-614): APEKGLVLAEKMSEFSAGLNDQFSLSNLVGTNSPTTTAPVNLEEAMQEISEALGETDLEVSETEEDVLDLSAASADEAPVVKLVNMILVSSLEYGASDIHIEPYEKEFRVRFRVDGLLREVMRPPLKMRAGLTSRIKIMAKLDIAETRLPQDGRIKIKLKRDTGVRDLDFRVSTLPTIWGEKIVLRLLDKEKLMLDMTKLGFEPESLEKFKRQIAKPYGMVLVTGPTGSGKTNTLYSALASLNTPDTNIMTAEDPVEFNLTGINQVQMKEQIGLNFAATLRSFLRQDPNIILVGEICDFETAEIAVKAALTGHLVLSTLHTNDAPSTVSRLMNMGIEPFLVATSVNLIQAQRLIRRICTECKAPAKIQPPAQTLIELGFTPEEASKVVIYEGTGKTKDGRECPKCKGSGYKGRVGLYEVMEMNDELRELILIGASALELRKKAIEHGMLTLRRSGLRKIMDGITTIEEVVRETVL
Source text: CtPilB, like its orthologue MshE ([35]), has a MshEN-like cyclic di-GMP-binding domain at its N terminus and a well-conserved ATPase domain at its C terminus ([28], [29]). To determine which domain the inhibitors interact with, we tested the effects of benserazide and levodopa on the ATPase activity of a truncated CtPilB variant (PilBΔN) without the N-terminal MshEN domain ([29]). […] These values are similar to those against the full-length PilB (Fig. 2).
as §2, with “MG reagent (50 μL) was added to each well for color development. After a 15-minute incubation, 5 μL of 34% (wt/vol) sodium-citrate (MP Chemicals) was added and the plate was mixed by shaking ([28], [29]).” left out, “The HTS was performed at the Virginia Tech Center for Drug Discovery (VTCDD) Screening Laboratory.” left out
The effects of inhibitors on the ATPase activity of CtPilB and CtPilBΔN and the binding of MANT-ATP were determined as described previously ([28], [29]). […]

T1 sequence (G2LDI3 entry or part of it): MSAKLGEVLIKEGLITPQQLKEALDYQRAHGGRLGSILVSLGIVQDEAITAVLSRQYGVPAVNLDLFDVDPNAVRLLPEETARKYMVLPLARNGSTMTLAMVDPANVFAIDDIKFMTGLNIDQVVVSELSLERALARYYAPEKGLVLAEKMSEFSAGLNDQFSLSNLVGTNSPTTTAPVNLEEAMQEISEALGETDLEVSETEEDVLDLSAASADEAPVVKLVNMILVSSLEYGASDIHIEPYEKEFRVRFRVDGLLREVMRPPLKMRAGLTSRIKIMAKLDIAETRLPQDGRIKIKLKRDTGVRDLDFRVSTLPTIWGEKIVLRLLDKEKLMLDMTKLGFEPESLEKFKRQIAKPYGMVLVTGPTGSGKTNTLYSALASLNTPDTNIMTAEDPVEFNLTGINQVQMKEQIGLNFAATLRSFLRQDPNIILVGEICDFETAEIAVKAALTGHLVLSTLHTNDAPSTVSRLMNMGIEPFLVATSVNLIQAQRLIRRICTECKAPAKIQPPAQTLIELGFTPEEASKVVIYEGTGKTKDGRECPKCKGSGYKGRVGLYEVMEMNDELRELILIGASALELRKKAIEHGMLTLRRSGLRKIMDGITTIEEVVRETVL

Row | SMILES | effect on pilin production level [1] | Ki (CtPilB [2]) | IC50 (CtPilB [2]) | IC50 (CtPilB [3]) | IC50 (CtPilBΔN)
1 | NC(CO)C(=O)NNCc1ccc(O)c(O)c1O (stereo not shown) [benserazide] | neither compound had any detectable effect | 2.27 µM | 33.6 ± 0.5 µM | 2.1 ± 0.4 µM | 2.2 ± 0.4 µM
2 | N[C@@H](Cc1ccc(O)c(O)c1)C(=O)O [levodopa, 3,4-dihydroxyphenylalanine] | neither compound had any detectable effect | 3.4 µM | 50.5 ± 9.2 µM | 58 µM and 58.8 µM | 76.2 ± 9.2 µM

Source: PMC9769694, “Discovery of Two Inhibitors of the Type IV Pilus Assembly ATPase PilB as Potential Antivirulence Compounds” (Microbiology Spectrum, 2022)
